According to patent publication US9822130B2, “Triazolo-pyrazinyl derivatives useful as soluble guanylate cyclase activators” (Merck Sharp & Dohme Corp., priority 2014, dated 2017):

The compounds below were run against T1, sGC α1/β1 heterodimer stably expressed in CHO-K1 cell line (CHO-K1/sGC) (Homo sapiens, UniProt Q02108+Q02153) (assay: Cell-based sGC Functional Assay (CASA Assay), cGMP generation). Details: CHO-K1/sGC cells, 1 hr at 37° C., cGMP by HTRF, 4P fit; presence or absence of 1 μM DETA-NO not given; read-out: IP (nM) (inflection point).
T1 construct: expressed in transfected cells
T1 sequence (Q02108 1-690): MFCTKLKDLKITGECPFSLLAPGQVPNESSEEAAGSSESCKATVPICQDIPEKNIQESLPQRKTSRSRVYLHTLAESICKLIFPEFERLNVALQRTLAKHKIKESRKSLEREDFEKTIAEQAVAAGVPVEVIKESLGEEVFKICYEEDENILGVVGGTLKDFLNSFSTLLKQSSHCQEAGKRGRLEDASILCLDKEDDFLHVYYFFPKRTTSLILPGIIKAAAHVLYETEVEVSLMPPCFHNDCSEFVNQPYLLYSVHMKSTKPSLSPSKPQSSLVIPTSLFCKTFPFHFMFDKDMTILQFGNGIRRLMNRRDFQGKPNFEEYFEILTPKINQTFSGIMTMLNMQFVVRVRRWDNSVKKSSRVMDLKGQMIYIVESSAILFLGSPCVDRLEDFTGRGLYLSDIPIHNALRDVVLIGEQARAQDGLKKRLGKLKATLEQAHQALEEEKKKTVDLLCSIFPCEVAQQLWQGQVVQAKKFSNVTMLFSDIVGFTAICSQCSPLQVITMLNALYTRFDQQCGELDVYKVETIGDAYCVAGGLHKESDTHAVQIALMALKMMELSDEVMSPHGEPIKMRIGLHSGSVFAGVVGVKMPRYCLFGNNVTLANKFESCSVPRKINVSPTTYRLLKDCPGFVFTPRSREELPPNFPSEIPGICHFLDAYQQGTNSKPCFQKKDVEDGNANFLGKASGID
T1 sequence (Q02153 1-619): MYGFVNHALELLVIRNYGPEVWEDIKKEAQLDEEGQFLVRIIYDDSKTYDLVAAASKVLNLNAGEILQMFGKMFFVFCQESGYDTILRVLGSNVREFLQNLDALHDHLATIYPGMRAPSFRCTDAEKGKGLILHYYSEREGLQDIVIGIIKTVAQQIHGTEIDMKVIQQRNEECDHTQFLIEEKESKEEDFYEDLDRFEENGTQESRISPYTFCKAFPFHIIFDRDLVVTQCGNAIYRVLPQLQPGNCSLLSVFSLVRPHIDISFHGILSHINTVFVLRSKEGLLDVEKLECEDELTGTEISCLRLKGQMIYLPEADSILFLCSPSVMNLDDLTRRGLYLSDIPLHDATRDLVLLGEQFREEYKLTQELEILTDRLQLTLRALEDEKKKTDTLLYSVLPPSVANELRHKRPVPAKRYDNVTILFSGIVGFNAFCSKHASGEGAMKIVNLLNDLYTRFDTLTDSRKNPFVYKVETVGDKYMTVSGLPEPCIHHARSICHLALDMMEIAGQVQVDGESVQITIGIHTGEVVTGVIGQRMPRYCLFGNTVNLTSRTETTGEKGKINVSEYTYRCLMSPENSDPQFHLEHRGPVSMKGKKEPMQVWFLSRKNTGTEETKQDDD
Summary of the method: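 CHO-K1 cells stably expressing human sGC α1/β1 (4×10^5/mL, 0.5 mM IBMX) were treated with compounds (2.5% DMSO final) ± 1 μM DETA-NO for 1 hr at 37° C. Intracellular cGMP measured by HTRF. Activity expressed as % of Compound A maximal cGMP; IP and maximum fold induction from 4P fit.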

| Compound | EC50 [nM] |
| --- | --- |
| CC(C)Cc1nc(-c2nc(N)c3c(n2)NC(=O)[C@@]3(C)c2ccc(F)cc2)cn2ncnc12 [Example 73A, (S)-4-amino-5-(4-fluorophenyl)-2-(8-isobutyl-[1,2,4]triazolo[1,5-a]pyrazin-6-yl)-5-methyl-5,7-dihydro-6H-pyrrolo[2,3-d]pyrimidin-6-one] | 44.1 |
| Nc1nc(-c2cn3ncnc3c(CCC(F)(F)F)n2)nc2c1C(c1ccc(F)c(F)c1)(C1CC1)C(=O)N2 (stereo not drawn) [Example 83A, 4-amino-5-cyclopropyl-5-(3,4-difluorophenyl)-2-(8-(3,3,3-trifluoropropyl)-[1,2,4]triazolo[1,5-a]pyrazin-6-yl)-5H-pyrrolo[2,3-d]pyrimidin-6(7H)-one] | 270 |
| C[C@@]1(c2ccc(F)cc2)C(=O)Nc2nc(-c3cn4ncnc4c(Cc4ccc(F)cc4)n3)nc(N)c21 [Example 85B, (S)-4-amino-2-(8-(4-fluorobenzyl)-[1,2,4]triazolo[1,5-a]pyrazin-6-yl)-5-(4-fluorophenyl)-5-methyl-5H-pyrrolo[2,3-d]pyrimidin-6(7H)-one] | 10.6 |
| COc1cccc(Cc2nc(-c3nc(N)c4c(n3)NC(=O)[C@@]4(C)c3ccc(F)cc3)cn3ncnc23)c1 [Example 86B, (S)-4-amino-5-(4-fluorophenyl)-2-(8-(3-methoxybenzyl)-[1,2,4]triazolo[1,5-a]pyrazin-6-yl)-5-methyl-5H-pyrrolo[2,3-d]pyrimidin-6(7H)-one] | 26.4 |
| Cc1nc2c(Cc3ccc(F)cc3)nc(-c3nc(N)c4c(n3)NC(=O)[C@@]4(C)c3ccc(F)cc3)cn2n1 [Example 87B, (S)-4-amino-2-(8-(4-fluorobenzyl)-2-methyl-[1,2,4]triazolo[1,5-a]pyrazin-6-yl)-5-(4-fluorophcnyl)-5-methyl-5H-pyrrolo[2,3-d]pyrimidin-6(7H)-one] | 80.2 |
| Cc1nc2c(CCC(F)(F)C(F)(F)F)nc(-c3nc(N)c4c(n3)NC(=O)[C@@]4(C)c3ccc(F)cc3)cn2n1 [Example 88B, (S)-4-amino-5-(4-fluorophenyl)-5-methyl-2-(2-methyl-8-(3,3,4,4,4-pentafluorobutyl)-[1,2,4]triazolo[1,5-a]pyrazin-6-yl)-5H-pyrrolo[2,3-d]pyrimidin-6(7H)-one] | 65 |
| Cc1nc2c(CCC(F)(F)C(F)(F)F)nc(-c3nc(N)c4c(n3)NC(=O)C4(C)c3ccc(Cl)c(F)c3)cn2n1 (stereo not drawn) [Example 90B, 4-amino-5-(4-chloro-3-fluorophenyl)-5-methyl-2-(2-methyl-8-(3,3,4,4,4-pentafluorobutyl)-[1,2,4]triazolo[1,5-a]pyrazin-6-yl)-5H-pyrrolo[2,3-d]pyrimidin-6(7H)-one] | 36.6 |
| CCCc1nc(-c2nc(N)c3c(n2)NC(=O)[C@@]3(C)c2ccc(F)cc2)cn2nc(C)nc12 [Example 91A, (S)-4-amino-5-(4-fluorophenyl)-5-methyl-2-(2-methyl-8-propyl-[1,2,4]triazolo[1,5-a]pyrazin-6-yl)-5,7-dihydro-6H-pyrrolo[2,3-d]pyrimidin-6-one] | 668 |
| CCCc1nc(-c2nc(N)c3c(n2)NC(=O)C3(C)c2ccc(F)cn2)cn2nc(C)nc12 (stereo not drawn) [Example 92B, 4-amino-5-(5-fluoropyridin-2-yl)-5-methyl-2-(2-methyl-8-propyl-[1,2,4]triazolo[1,5-a]pyrazin-6-yl)-5H-pyrrolo[2,3-d]pyrimidin-6(7H)-one] | 4830 |

Now from value to compound:

| EC50 [nM] | Compound |
| --- | --- |
| 55.6 | C[C@@]1(c2ccc(F)cc2)C(=O)Nc2nc(-c3cn4ncnc4c(CCC(F)(F)F)n3)nc(N)c21 [Example 74A, (S)-4-amino-5-(4-fluorophenyl)-5-methyl-2-(8-(3,3,3-trifluoropropyl)-[1,2,4]triazolo[1,5-a]pyrazin-6-yl)-5,7-dihydro-6H-pyrrolo[2,3-d]pyrimidin-6-one] |
| 20 | CC1(c2ccc(Cl)c(F)c2)C(=O)Nc2nc(-c3cn4ncnc4c(CCC(F)(F)F)n3)nc(N)c21 (stereo not drawn) [Example 75B, 4-amino-5-(4-chloro-3-fluorophenyl)-5-methyl-2-(8-(3,3,3-trifluoropropyl)-[1,2,4]triazolo[1,5-a]pyrazin-6-yl)-5H-pyrrolo[2,3-d]pyrimidin-6(7H)-one] |
| 154 | CC1(c2ccc(Cl)cc2)C(=O)Nc2nc(-c3cn4ncnc4c(CCC(F)(F)F)n3)nc(N)c21 (stereo not drawn) [Example 76A, 4-amino-5-(4-chlorophenyl)-5-methyl-2-(8-(3,3,3-trifluoropropyl)-[1,2,4]triazolo[1,5-a]pyrazin-6-yl)-5H-pyrrolo[2,3-d]pyrimidin-6(7H)-one] |
| 333 | CC1(c2ccc(C(F)(F)F)cc2)C(=O)Nc2nc(-c3cn4ncnc4c(CCC(F)(F)F)n3)nc(N)c21 (stereo not drawn) [Example 77B, 4-amino-5-methyl-5-(4-(trifluoromethyl)phenyl)-2-(8-(3,3,3-trifluoropropyl)-[1,2,4]triazolo[1,5-a]pyrazin-6-yl)-5H-pyrrolo[2,3-d]pyrimidin-6(7H)-one] |
| 550 | CC1(c2ccc(C(F)(F)F)cn2)C(=O)Nc2nc(-c3cn4ncnc4c(CCC(F)(F)F)n3)nc(N)c21 (stereo not drawn) [Example 78B, 4-amino-5-methyl-5-(5-(tritluoromethyl)pyridin-2-yl)-2-(8-(3,3,3-trifluoropropyl)-[1,2,4]triazolo[1,5-d]pyrazin-6-yl)-5H-pyrrolo[2,3-d]pyrimidin-6(7H)-one] |
| 325 | CC1(c2ccc(Cl)cn2)C(=O)Nc2nc(-c3cn4ncnc4c(CCC(F)(F)F)n3)nc(N)c21 (stereo not drawn) [Example 79A, 4-amino-5-(5-chloropyridin-2-yl)-5-methyl-2-(8-(3,3,3-trifluoropropyl)-[1,2,4]triazolo[1,5-a]pyrazin-6-yl)-5H-pyrrolo[2,3-d]pyrimidin-6(7H)-one] |
| 2490 | Nc1nc(-c2cn3ncnc3c(CCC(F)(F)F)n2)nc2c1C(c1ccc(C(F)(F)F)cn1)(C1CC1)C(=O)N2 (stereo not drawn) [Example 80A, 4-amino-5-cyclopropyl-5-(5-(trifluoromethyl)pyridin-2-yl)-2-(8-(3,3,3-trifluoropropyl)-[1,2,4]triazolo[1,5-a]pyrazin-6-yl)-5H-pyrrolo[2,3-d]pyrimidin-6(7H)-one] |
| 698 | CC1(c2ccc(F)cn2)C(=O)Nc2nc(-c3cn4ncnc4c(CCC(F)(F)F)n3)nc(N)c21 (stereo not drawn) [Example 81B, 4-amino-5-(5-fluoropyridin-2-yl)-5-methyl-2-(8-(3,3,3-trifluoropropyl)-[1,2,4]triazolo[1,5-a]pyrazin-6-yl)-5H-pyrrolo[2,3-d]pyrimidin-6(7H)-one] |
| 555 | Nc1nc(-c2cn3ncnc3c(CCC(F)(F)F)n2)nc2c1C(c1ccc(Cl)cn1)(C1CC1)C(=O)N2 (stereo not drawn) [Example 82A, 4-amino-5-(5-chloropyridin-2-yl)-5-cyclopropyl-2-(8-(3,3,3-trifluoropropyl)-[1,2,4]triazolo[1,5-a]pyrazin-6-yl)-5H-pyrrolo[2,3-d]pyrimidin-6(7H)-one] |
| 55.7 | CC1(c2ccc(F)c(F)c2)C(=O)Nc2nc(-c3cn4ncnc4c(CCC(F)(F)F)n3)nc(N)c21 (stereo not drawn) [Example 84B, 4-amino-5-(3,4-difluorophenyl)-5-methyl-2-(8-(3,3,3-trifluoropropyl)-[1,2,4]triazolo[1,5-a]pyrazin-6-yl)-5H-pyrrolo[2,3-d]pyrimidin-6(7H)-one] |
| 260 | Cc1nc2c(CCC(F)(F)C(F)(F)F)nc(-c3nc(N)c4c(n3)NC(=O)C4(C)c3ccc(F)cn3)cn2n1 (stereo not drawn) [Example 89B, 4-amino-5-(5-fluoropyridin-2-yl)-5-methyl-2-(2-methyl-8-(3,3,4,4,4-pentafluorobutyl)-[1,2,4]triazolo[1,5-a]pyrazin-6-yl)-5H-pyrrolo[2,3-d]pyrimidin-6(7H)-one] |

Same assay, conditions: CHO-K1/sGC cells, 1 hr at 37° C., cGMP by HTRF; presence or absence of 1 μM DETA-NO not given; read-out: % Act. (percent activation relative to maximum cGMP production of Compound A = 100%)

| Emax [%] | Compound |
| --- | --- |
| 100 | Nc1nc(-c2cn3ncnc3c(CCC(F)(F)F)n2)nc2c1C(c1ccc(F)c(F)c1)(C1CC1)C(=O)N2 (stereo not drawn) [Example 83A, 4-amino-5-cyclopropyl-5-(3,4-difluorophenyl)-2-(8-(3,3,3-trifluoropropyl)-[1,2,4]triazolo[1,5-a]pyrazin-6-yl)-5H-pyrrolo[2,3-d]pyrimidin-6(7H)-one] |
